Assay results: patent publication US12247032B2, “Substituted pyrazolo[1,5-a]pyrimidines as inhibitors of JAK kinases” (Genentech, Inc., priority 2019, dated 2025)
Read-outs that look alike come from different tables or passages of the source.

How the values were obtained:
[1] = system: JAK1 (IL-13-stimulated STAT6 phosphorylation in BEAS-2B cells); test: P-STAT6 BEAS-2B+IL-13 cell assay; assay type: cell-based, human; conditions: 1 hour compound, IL-13 15 minutes, IC50 by four-parameter fit, read-out: Cellular JAK1 PSTAT6 BEAS2B + IL13
In short: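 BEAS-2B human bronchial epithelial cells preincubated 1 h at 37 °C with compound, then stimulated with human recombinant IL-13 for 15 min. Phospho-STAT6 (Tyr641) in lysates measured by MSD electrochemiluminescence immunoassay; IC50 from a four-parameter logistic fit of percent of control.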

[2] = target: T1, recombinant human JAK1 kinase domain protein (Residues 854-1154) (Homo sapiens, UniProt P23458); test: JAK1 biochemical assay (microfluidic mobility shift, peptide phosphorylation); conditions: 25 μM ATP, 1 nM total JAK1; Ki calculated from Ki app (tight-binding, competitive); read-out: Biochem JAK1 Ki
T1 construct: human JAK1 kinase domain protein (Residues 854-1154); purchased Proteros Biostructures GmbH (Martinsried, Germany); host or cells: insect cells
T1 sequence (P23458 854-1154): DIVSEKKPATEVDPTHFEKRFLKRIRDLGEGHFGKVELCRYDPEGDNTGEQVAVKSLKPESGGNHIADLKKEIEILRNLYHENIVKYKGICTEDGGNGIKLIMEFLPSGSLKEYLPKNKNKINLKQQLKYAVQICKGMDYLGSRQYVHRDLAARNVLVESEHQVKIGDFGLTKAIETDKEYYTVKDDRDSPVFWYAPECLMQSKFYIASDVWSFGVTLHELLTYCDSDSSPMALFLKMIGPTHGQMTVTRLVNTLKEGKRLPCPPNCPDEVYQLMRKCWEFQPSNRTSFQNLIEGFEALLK
In short: (§1)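 Insect-cell-expressed human JAK1 (1 nM, residues 854-1154) or JAK2 (0.2 nM, residues 812-1132) phosphorylating 1.5 μM 5-FAM peptide Y-1B with 25 μM ATP, pH 7.2 HEPES, 30 min at 22-23 °C; twelve concentrations up to 1000 nM in duplicate. Mobility-shift % conversion fitted to tight-binding quadratic for Ki^app.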

[3] = target: T2, Recombinant human JAK2 kinase domain protein (Residues 812-1132) (Homo sapiens, UniProt O60674); test: JAK2 biochemical assay (microfluidic mobility shift, peptide phosphorylation); conditions: 25 μM ATP, 0.2 nM total JAK2; Ki calculated from Ki app (tight-binding, competitive); read-out: Biochem JAK2 Ki
T2 construct: human JAK2 kinase domain protein (Residues 812-1132); made in house; host or cells: insect cells
T2 sequence (O60674 812-1132): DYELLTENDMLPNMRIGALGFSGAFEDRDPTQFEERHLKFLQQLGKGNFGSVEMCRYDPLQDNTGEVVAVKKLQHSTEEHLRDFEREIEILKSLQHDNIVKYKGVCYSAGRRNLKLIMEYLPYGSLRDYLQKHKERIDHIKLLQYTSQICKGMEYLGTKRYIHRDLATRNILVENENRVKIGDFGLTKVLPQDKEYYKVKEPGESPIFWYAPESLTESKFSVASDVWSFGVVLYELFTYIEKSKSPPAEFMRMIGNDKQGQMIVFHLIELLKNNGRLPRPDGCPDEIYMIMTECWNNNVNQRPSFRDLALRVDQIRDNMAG
In short: as §1

Ki [2]	Ki [3]	Structure (SMILES)	IC50 ([1]; Homo sapiens, BEAS-2B, 1 h)	IC50 [1]
0.52 nM	0.47 nM	CN(C)CCN(C)C1CC(n2nnc(Cn3cc(NC(=O)c4cnn5cccnc45)c(-c4cc(OC(F)F)ccc4OC(F)F)n3)n2)C1 (single isomer, unassigned) [Example 81, N-[3-[2,5-bis(difluoromethoxy)phenyl]-1-[[2-[3-[2-(dimethylamino)ethyl-methyl-amino]cyclobutyl]tetrazol-5-yl]methyl]pyrazol-4-yl]pyrazolo[1,5-a]pyrimidine-3-carboxamide; formic acid]	29 nM	
2.4 nM	1.9 nM	CN(C)C1CCC(N2CC(n3nnc(Cn4cc(NC(=O)c5cnn6cccnc56)c(-c5cc(OC(F)F)ccc5OC(F)F)n4)n3)C2)C1 (single isomer, unassigned) [Example 76, N-[3-[2,5-bis(difluoromethoxy)phenyl]-1-[[2-[1-[3-(dimethylamino)cyclopentyl]azetidin-3-yl]tetrazol-5-yl]methyl]pyrazol-4-yl]pyrazolo[1,5-a]pyrimidine-3-carboxamide]		74 nM
0.4 nM	0.23 nM	O=C(Nc1cn(Cc2nnnn2CCN2CCOCC2)nc1-c1cc(Cl)ccc1OC(F)F)c1cnn2cccnc12 [Example 5, N-[3-[5-chloro-2-(difluoromethoxy)phenyl]-1-[[1-(2-morpholinoethyl)tetrazol-5-yl]methyl]pyrazol-4-yl]pyrazolo[1,5-a]pyrimidine-3-carboxamide]	15 nM	
0.63 nM	0.54 nM	CN1CC(N(C)CCn2nnc(Cn3cc(NC(=O)c4cnn5cccnc45)c(-c4cc(OC(F)F)ccc4OC(F)F)n3)n2)C1 [Example 48, N-[3-[2,5-bis(difluoromethoxy)phenyl]-1-[[2-[2-[methyl-(1-methylazetidin-3-yl)amino]ethyl]tetrazol-5-yl]methyl]pyrazol-4-yl]pyrazolo[1,5-a]pyrimidine-3-carboxamide]	15 nM	
